According to patent publication US20020137929A1, “1 - (3-heterocyclylphenyl) isothiourea, -isourea, -guanidine and -amidine herbicidal agents” (Intellectual Property Department, BASF Aktiengesellschaft, priority 1998, published 2002):

Experiments:
[1] = tested on: GLXMAW (Soybean, Williams); test: Preemergence herbicidal evaluation; type: in vivo, Glycine max, (L.) Merr. cv Williams; conditions: rated 4-5 weeks after treatment
In short: (§1)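 Herbicidal effect scored visually, 0-9, at 4 to 5 weeks against a control; compound applied preemergence by aqueous acetone spray to seeded soil at about 0.0156 to 0.500 kg/ha.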

AMBEL (Ragweed, Common) = test: Preemergence herbicidal evaluation; type: in vivo, Ambrosia artemisifolia; conditions: rated 4-5 weeks after treatment
In short: as §1

ZEAMX (Corn, Field) = test: Postemergence herbicidal evaluation; type: in vivo, Zea mays; conditions: for ZEAMX herbicidal rating: postemergence
In short: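 ~2-wk seedlings; postemergence spray, 40 psi; vehicle 1:1 acetone:water + 0.5% Tween 20; rate ≈0.0156–0.500 kg/ha; greenhouse hold; scored 4–5 wk after treatment, 0–9 scale vs control; repeat tests averaged.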

[2] = tested on: SAGPY (Arrowhead (Pygmaea)); test: Postemergence weed control under flooded paddy conditions; type: in vivo, Sagittaria pygmaea; conditions: postemergence weeds
In short: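 Flood-water application, about 0.0313–0.500 kg/ha a.i. in aqueous/acetone 50/50 v/v; water depth 1.5–3 cm throughout. Weeds 3–5 cm, rice 1.5–2.5 leaf. Greenhouse; 0–9 visual rating vs control at 3–4 wk.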

ABUTH (Velvetleaf) = test: Preemergence herbicidal evaluation; type: in vivo, Abutilon theophrasti; conditions: rated 4-5 weeks after treatment
In short: as §1

[3] = Rate 0.0313 kg/ha, rated 3 to 4 weeks after treatment
[4] = Rate 0.0625 kg/ha, rated 3 to 4 weeks after treatment
[5] = Rate 0.1250 kg/ha, rated 3 to 4 weeks after treatment
[6] = Rate 0.2500 kg/ha, rated 3 to 4 weeks after treatment

Row | Compound | Preemergence herbicidal rating GLXMAW ([1]; rate 0.0156 kg/ha) | Preemergence herbicidal rating GLXMAW ([1]; rate 0.0313 kg/ha) | Preemergence herbicidal rating GLXMAW ([1]; rate 0.0625 kg/ha) | Preemergence herbicidal rating GLXMAW ([1]; rate 0.1250 kg/ha) | Preemergence herbicidal rating GLXMAW ([1]; rate 0.2500 kg/ha) | Preemergence herbicidal rating AMBEL (AMBEL (Ragweed, Common); rate 0.0313 kg/ha) | Preemergence herbicidal rating AMBEL (AMBEL (Ragweed, Common); rate 0.0625 kg/ha) | Preemergence herbicidal rating AMBEL (AMBEL (Ragweed, Common); rate 0.1250 kg/ha) | Preemergence herbicidal rating AMBEL (AMBEL (Ragweed, Common); rate 0.2500 kg/ha) | ZEAMX herbicidal rating (ZEAMX (Corn, Field); rate 0.0158 kg/ha) | ZEAMX herbicidal rating (ZEAMX (Corn, Field); rate 0.0315 kg/ha) | ZEAMX herbicidal rating (ZEAMX (Corn, Field); rate 0.0630 kg/ha) | Herbicidal rating SAGPY [2, 3] | Herbicidal rating SAGPY [2, 4] | Herbicidal rating SAGPY [2, 5] | Herbicidal rating SAGPY [2, 6] | Preemergence herbicidal rating ABUTH (ABUTH (Velvetleaf); rate 0.0156 kg/ha) | Preemergence herbicidal rating ABUTH (ABUTH (Velvetleaf); rate 0.0313 kg/ha) | Preemergence herbicidal rating ABUTH (ABUTH (Velvetleaf); rate 0.1250 kg/ha) | Preemergence herbicidal rating ABUTH (ABUTH (Velvetleaf); rate 0.2500 kg/ha) | other results
1 | COC(=O)C(Cc1ccc(Cl)cc1)N1C(=O)CSC1=Nc1cc(-n2c(=O)cc(C(F)(F)F)n(C)c2=O)c(F)cc1Cl (racemic) [Compound 77, Methyl α-(p-chlorobenzyl)-2-{{2-chloro-5-[3,6-dihydro-3-methyl-2,6-dioxo-4-(trifluoromethyl)-1(2H)-pyrimidinyl]-4-fluorophenyl}imino}-4-oxo-3-thiazolidineacetate, DL-] | 0.0 | 0.0 | 0.0 | 0.0 | 1.0 | 2.0 | 1.0 | 2.0 | 7.0 | 4.0 | 3.5 | 4.5 | 0.0 | 0.0 | 0.0 | 0.0 | 1.0 | 0.0 | 9.0 | 9.0 | Preemergence herbicidal rating AMBEL (AMBEL (Ragweed, Common); rate 0.0156 kg/ha): 0.0; Preemergence herbicidal rating ABUTH (ABUTH (Velvetleaf); rate 0.0625 kg/ha): 9.0
2 | CCOC(=O)CN1C(=O)C(Cc2ccccc2OC)SC1=Nc1cc(-n2c(=O)cc(C(F)(F)F)n(C)c2=O)c(F)cc1Cl (stereo not shown) [Compound 37, Ethyl 2-{{2-chloro-5-[3,6-dihydro-3-methyl-2,6-dioxo-4-(trifluoromethyl)-1(2H)-pyrimidinyl]-4-fluorophenyl}imino}-5-(o-methoxybenzyl)-4-oxo-3-thiazolidineacetate] |  |  |  | 0.0 | 0.0 |  |  | 0.0 | 0.0 |  |  |  |  |  |  |  |  |  | 0.0 | 3.0 | Postemergence herbicidal rating ZEAMX (ZEAMX (Corn, Field); Rate 0.0158 kg/ha): 3.5; Postemergence herbicidal rating ZEAMX (ZEAMX (Corn, Field); Rate 0.0315 kg/ha): 4.0; Postemergence herbicidal rating ZEAMX (ZEAMX (Corn, Field); Rate 0.0630 kg/ha): 4.0; Herbicidal rating SAGPY ([2]; rate 0.0313 kg/ha, 3-4 weeks after treatment): 0.0; Herbicidal rating SAGPY ([2]; rate 0.0625 kg/ha, 3-4 weeks after treatment): 0.0; Herbicidal rating SAGPY ([2]; rate 0.1250 kg/ha, 3-4 weeks after treatment): 0.0; Herbicidal rating SAGPY ([2]; rate 0.2500 kg/ha, 3-4 weeks after treatment): 3.0
3 | C[C@H](C(=O)O)N1C(=O)CSC1=Nc1cc(-n2c(=O)cc(C(F)(F)F)n(C)c2=O)c(F)cc1Cl [Compound 70, 2-{{2-Chloro-5-[3,6-dihydro-3-methyl-2,6-dioxo-4-(trifluoromethyl)-1(2H)-pyrimidinyl]-4-fluoro-phenyl}imino}-α-methyl-4-oxo-3-thiazolidineacetic acid, D-] | 0.0 | 0.0 | 0.0 | 0.0 | 2.0 | 0.0 | 0.0 | 3.0 | 9.0 | 4.0 | 5.5 | 7.0 | 4.0 | 4.0 | 4.0 | 4.0 | 0.0 | 0.0 | 6.0 | 9.0 | Preemergence herbicidal rating AMBEL (AMBEL (Ragweed, Common); rate 0.0156 kg/ha): 0.0
4 | COC(=O)[C@@H](Cc1ccccc1)N1C(=O)CSC1=Nc1cc(-n2c(=O)cc(C(F)(F)F)n(C)c2=O)c(F)cc1Cl [Compound 74, Methyl α-benzyl-2-{{2-chloro-5-[3,6-dihydro-3-methyl-2,6-dioxo-4-(trifluoromethyl)-1(2H)-pyrimidinyl]-4-fluorophenyl}imino}-4-oxo-3-thiazolidineacetate, D-] | 0.0 | 1.0 | 0.0 | 1.0 | 1.0 | 1.0 | 3.0 | 9.0 | 9.0 | 4.5 | 5.0 | 5.5 | 3.0 | 3.0 | 3.0 | 9.0 | 0.0 | 4.0 | 9.0 | 9.0 | Preemergence herbicidal rating AMBEL (AMBEL (Ragweed, Common); rate 0.0156 kg/ha): 0.0; Preemergence herbicidal rating ABUTH (ABUTH (Velvetleaf); rate 0.0625 kg/ha): 9.0
5 | C[C@@H](C(=O)OC(C)(C)C)N1C(=O)CSC1=Nc1cc(-n2c(=O)cc(C(F)(F)F)n(C)c2=O)c(F)cc1Cl [Compound 75, tert-Butyl 2-{{2-chloro-5-[3,6-dihydro-3-methyl-2,6-dioxo-4-(trifluoromethyl)-1(2H)-pyrimidinyl]-4-fluorophenyl}imino}-α-methyl-4-oxo-3-thiazolidineacetate, L-] | 0.0 | 0.0 | 0.0 | 2.0 | 2.0 | 0.0 | 1.0 | 6.0 | 7.0 | 4.0 | 4.5 | 5.0 | 0.0 | 0.0 | 0.0 | 3.0 | 0.0 | 0.0 | 9.0 | 9.0 | Preemergence herbicidal rating AMBEL (AMBEL (Ragweed, Common); rate 0.0156 kg/ha): 0.0; Preemergence herbicidal rating ABUTH (ABUTH (Velvetleaf); rate 0.0625 kg/ha): 9.0
6 | CCOC(=O)[C@H](Cc1ccccc1)N1C(=O)CSC1=Nc1cc(-n2c(=O)cc(C(F)(F)F)n(C)c2=O)c(F)cc1Cl [Compound 80, Ethyl α-benzyl-2-{{2-chloro-5-[3,6-dihydro-3-methyl-2,6-dioxo-4-(trifluoromethyl)-1(2H)-pyrimidinyl]-4-fluorophenyl}imino}-4-oxo-3-thiazolidineacetate, L-] | 0.0 | 0.0 | 1.0 | 1.0 | 1.0 | 0.0 | 2.0 | 9.0 | 7.0 | 5.0 | 5.0 | 5.5 | 0.0 | 0.0 | 0.0 | 0.0 | 0.0 | 1.0 | 9.0 | 9.0 | Preemergence herbicidal rating ABUTH (ABUTH (Velvetleaf); rate 0.0625 kg/ha): 9.0
